Measurements: patent US20240049706A1, “COMPOSITIONS AND METHODS FOR CONTROLLING INSECTS” (priority 2020, published 2024)

Experiments:
[1] = Loading (encapsulation) efficacy of essential oils into AgriCell, UV-Vis after ethanol extraction; type: physicochemical; conditions: EO encapsulated into AgriCell; original concentration of EO 200 mg/mL
Description: After […] are purified, the concentrated […] paste or dry lyophilized powder is loaded with EOs. If dry, the […] are first homogenized into a finer powder through mechanical homogenization. A stock solution from each EO is prepared in ethanol at 100 mg/mL-200 mg/mL. Lyophilized […] would then be suspended in a solution with the EO solution at a ratio of 1 g of dry […] to 10 mL of EO solution. Once resuspended, the ethanol is allowed to evaporate overnight, leaving behind EO encapsulated […] in the process. After this overnight period, encapsulated […] are removed from the beaker, and the EO-encapsulated […] powder is mechanically homogenized. This encapsulated product is ready for resuspension in its appropriate medium.

[2] = 7 days, 20 mg/mL
Description: One replicate of each EO per treatment was collected daily and tested for EO content. Results were reported as concentration of EO as function of time for each stability condition.

[3] = 20 mg/mL; for percentage existing / remaining (not damaged) after autoxidation: 168 h; for percentage degraded by autoxidation: 7 days
Description: Results were reported as concentration of EO as function of time for each stability condition.

Row | Structure (SMILES) | encapsulation efficacy [1] | percentage of degradation (thermal) [2] | percentage existing / remaining (not damaged) after autoxidation [3] | percentage degraded by autoxidation [3]
1 | C=CCc1ccc(O)c(OC)c1 [free eugenol, Eugenol] | 95.5% | 82.7% | 17.3% | 82.7%
2 | Cc1ccc(C(C)C)c(O)c1 [free thymol, thymol] | 91.8% | 79.1% | 44.2% | 55.8%
